The results in this text go back to patent US20250145596A1, “HETEROCYCLIC GLP-1 AGONISTS” (Gasherbrum Bio, Inc., priority 2022, published 2025).

The target in this assay is T1, GLP-1 Receptor (Homo sapiens, UniProt P43220).
T1 construct: host or cells: HEK293/CRE-Luc
The assay can be described thus: GLP-1R agonist cAMP stimulation assay. The class given is cell-based. The note with it: HEK293/CRE-Luc cell line stably expressing the GLP-1 Receptor; 30 min at 37° C.; cAMP dynamic 2 Kit. The procedure:
Activation of GLP-1 receptor is known to stimulate cyclic AMP (cAMP) production in cells which indicates primary coupling to the Gas subunit of the G protein heterotrimeric complex.
To optimize functional activity directed toward Gas coupling, a HEK293/CRE-Luc cell line developed by HDB stably expressing the GLP-1 Receptor was used. 200× concentration of compound working solutions were prepared (Agilent Technologies Bravo) with ½ log serial dilution in 384-well Echo LDV plate (Labcyte, Cat #LP-0200). 50 nL/well 200× concentration of compound working solutions were moved to 384-well white low volume plate (Greiner, Cat #784075) using Labcyte ECHO550. 1×10^5 cells/mL HEK293/GLPlR/CRE-LUC (HD Biosciences) cell suspensions prepared with assay buffer [DPBS containing 0.5 mM IBMX (Sigma, Cat #15879) and 0.1% BSA (GENVIEW, Cat #FA016-100g)], 10 μL cell suspensions were added to each well of previous generated assay plate which already contains 50 nL compound at 200× concentration using ThermoFisher Multidrop Combi (1000 cells/well). Seal the plate and incubate at 37° C. with 5% CO2 for 30 min.
After incubation the cAMP assay signal was generated using cAMP dynamic 2 Kit (Cisbio). 5 μL cAMP-d2 working solution was added to each well, followed with 5 μL Anti-cAMP antibody-cryptate working solution added to each well using ThermoFisher Multidrop Combi. Incubate at room temperature for 1 hour protected from light. Read the fluorescence at 665 and 615 nm with Reader PerkinElmer EnVision.
% Activity=100%×(mean RLU of test sample mean RLU of vehicle control)/(mean RLU of MAX control−mean RLU of vehicle control))

T1 sequence (P43220 24-463): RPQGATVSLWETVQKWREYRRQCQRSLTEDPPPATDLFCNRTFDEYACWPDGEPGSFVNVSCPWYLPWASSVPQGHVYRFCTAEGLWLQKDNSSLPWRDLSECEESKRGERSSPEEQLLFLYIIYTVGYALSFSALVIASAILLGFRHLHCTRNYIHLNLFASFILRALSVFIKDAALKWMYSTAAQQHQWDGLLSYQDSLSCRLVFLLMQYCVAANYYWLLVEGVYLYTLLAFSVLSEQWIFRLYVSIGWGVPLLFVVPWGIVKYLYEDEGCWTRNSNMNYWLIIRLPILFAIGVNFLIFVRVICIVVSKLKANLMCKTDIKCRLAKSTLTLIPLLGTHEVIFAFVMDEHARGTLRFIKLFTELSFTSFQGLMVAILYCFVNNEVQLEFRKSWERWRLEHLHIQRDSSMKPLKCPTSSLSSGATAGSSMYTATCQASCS

As a reminder, the EC50 is the concentration at which the effect is half-maximal. A lower EC50 goes with a more potent agent. `C[C@]1(c2ccc(Cl)cc2F)Oc2cccc(C3CCN(Cc4ncc(CCC(=O)O)cc4CC4(C#N)CC4)CC3)c2O1` [Example 21, (S)-3-(6-((4-(2-(4-chloro-2-fluorophenyl)-2-methylbenzo[d][1,3]dioxol-4-yl)piperidin-1-yl)methyl)-5-((1-cyanocyclopropyl)methyl)pyridin-3-yl)propanoic acid] had a half-maximal effective concentration (EC50) of 1 to 100 nM. In the case of `CC1(c2ccc(Cl)cc2F)Oc2cc(F)cc(C3CCN(Cc4ncc(-c5nnc(C(F)(F)F)[nH]5)cc4CC4(C#N)CC4)CC3)c2O1` (single isomer, unassigned) [Example 13, 1-{[2-({4-[2-(4-chloro-2-fluorophenyl)-6-fluoro-2-methyl-2H-1,3-benzodioxol-4-yl]piperidin-1-yl}methyl)-5-[5-(trifluoromethyl)-4H-1,2,4-triazol-3-yl]pyridin-3-yl]methyl}cyclopropane-1-carbonitrile] it was under 1 nM.

Compound `CC(c1cc(-c2nnc(C(F)(F)F)[nH]2)cnc1CN1CCC(c2cccc3c2O[C@@](C)(c2ccc(Cl)cc2F)O3)CC1)S(C)(=O)=O` (stereo partly drawn) [Example 60, 2-((4-((S)-2-(4-chloro-2-fluorophenyl)-2-methylbenzo[d][1,3]dioxol-4-yl)piperidin-1-yl)methyl)-3-(1-(methylsulfonyl)ethyl)-5-(5-(trifluoromethyl)-4H-1,2,4-triazol-3-yl)pyridine] came in with an EC50 of 1 to 100 nM. `CC1(c2ccc(Cl)cc2Cl)Oc2cccc(C3CCN(Cc4ncc(-c5nnc(C(F)(F)F)[nH]5)cc4CC4(C#N)CC4)CC3)c2O1` (centres unmarked) [Example 1, 1-{[2-({4-[2-(2,4-dichlorophenyl)-2-methyl-2H-1,3-benzodioxol-4-yl]piperidin-1-yl}methyl)-5-[5-(trifluoromethyl)-4H-1,2,4-triazol-3-yl]pyridin-3-yl]methyl}cyclopropane-1-carbonitrile]: the EC50 was under 1 nM. In the case of `CN1CCC(Cc2cc(-c3nnc(C(F)(F)F)[nH]3)cnc2CN2CCC(c3cccc4c3O[C@@](C)(c3ccc(Cl)cc3F)O4)CC2)C1=O` (some centres unmarked) [Example 92] it was 1 to 100 nM; in that of `CC1(c2ccc(C(F)(F)F)cc2F)Oc2cccc(C3CCN(Cc4ncc(-c5nnc(C(F)(F)F)[nH]5)cc4CC4(C#N)CC4)CC3)c2O1` (centres unmarked) [Example 8, 1-((2-((4-(2-(2-fluoro-4-(trifluoromethyl)phenyl)-2-methylbenzo[d][1,3]dioxol-4-yl)piperidin-1-yl)methyl)-5-(5-(trifluoromethyl)-4H-1,2,4-triazol-3-yl)pyridin-3-yl)methyl)cyclopropane-1-carbonitrile], under 1 nM; in that of `C[C@H]1CN(c2ccc(F)c(OCc3ccc(Cl)cc3F)c2)CCN1Cc1ncc(-c2nnc(C(F)(F)F)[nH]2)cc1CC1(C#N)CC1` [Example 43, 1-[(2-{[(2S)-4-{3-[(4-chloro-2-fluorophenyl)methoxy]-4-fluorophenyl}-2-methylpiperazin-1-yl]methyl}-5-[5-(trifluoromethyl)-4H-1,2,4-triazol-3-yl]pyridin-3-yl)methyl]cyclopropane-1-carbonitrile], under 1 nM.

`C[C@]1(c2ccc(Cl)cc2F)Oc2cccc(C3CCN(Cc4ncc(-c5noc(=O)[nH]5)cc4CS(C)(=O)=O)CC3)c2O1` [Example 58, 3-[6-({4-[(2S)-2-(4-chloro-2-fluorophenyl)-2-methyl-2H-1,3-benzodioxol-4-yl]piperidin-1-yl}methyl)-5-(methanesulfonylmethyl)pyridin-3-yl]-2,5-dihydro-1,2,4-oxadiazol-5-one] displayed an EC50 of under 1 nM. In the case of `C[C@]1(c2ccc(Cl)cn2)Oc2cccc(C3CCN(Cc4ncc(-c5noc(=O)[nH]5)cc4CC4(C#N)CC4)CC3)c2O1` [Example 77] it was under 1 nM. Then `N#CC1(Cc2cc(-c3nnc(C(F)(F)F)[nH]3)cnc2CN2CCN(c3ncc(F)c(OCc4ccc(Cl)cc4F)n3)CC2)CC1` [Example 45, 1-((2-((4-(4-((4-chloro-2-fluorobenzyl)oxy)-5-fluoropyrimidin-2-yl)piperazin-1-yl)methyl)-5-(5-(trifluoromethyl)-4H-1,2,4-triazol-3-yl)pyridin-3-yl)methyl)cyclopropane-1-carbonitrile], with 1 to 100 nM; and `N#CC1(Cc2cc(-c3nnc(C(F)(F)F)[nH]3)cnc2CN2CCN(c3ccc(Cl)c(OCc4ccc(Cl)cc4F)c3)CC2)CC1` [Example 42, 1-({2-[(4-{4-chloro-3-[(4-chloro-2-fluorophenyl)methoxy]phenyl}piperazin-1-yl)methyl]-5-[5-(trifluoromethyl)-4H-1,2,4-triazol-3-yl]pyridin-3-yl}methyl)cyclopropane-1-carbonitrile], with 1 to 100 nM; and `C[C@]1(c2ccc(Cl)cc2F)Oc2cccc(C3CCN(Cc4ncc(-c5nnn[nH]5)cc4CC4(C#N)CC4)CC3)c2O1` [Example 71], with under 1 nM. In the case of `Cc1cc(-c2cnn(C)c2)cnc1CN1CCC(c2cccc(OCc3ccc(Cl)cc3F)n2)CC1` [Example 99] it was over 100 nM; in that of `C[C@]1(c2ccc(Cl)cc2F)Oc2c(F)ccc(C3CCN(Cc4ncc(-c5nnc(C(F)(F)F)[nH]5)cc4CC4(C#N)CC4)CC3F)c2O1` (single isomer, unassigned) [Example 29], under 1 nM. In turn, `N#CC1(Cc2cc(-c3nnc(C(F)(F)F)[nH]3)cnc2CN2CCN(c3ccc(F)c(OCc4ccc(Cl)cc4F)c3)CC2)CC1` [Example 41, 1-({2-[(4-{3-[(4-chloro-2-fluorophenyl)methoxy]-4-fluorophenyl}piperazin-1-yl)methyl]-5-[5-(trifluoromethyl)-4H-1,2,4-triazol-3-yl]pyridin-3-yl}methyl)cyclopropane-1-carbonitrile] registered an EC50 of under 1 nM. Then `Cc1nc(-c2cnc(CN3CCC(c4cccc5c4OC(C)(c4ccc(Cl)cc4F)O5)CC3)c(C)c2)no1` (centres unmarked) [Example 97], with over 100 nM; and `C[C@]1(c2ccc(Cl)cc2F)Oc2cccc(C3CCN(Cc4ncc(-c5nnc(C(F)(F)F)[nH]5)cc4CS(C)(=O)=O)CC3)c2O1` [Example 55, 2-({4-[(2S)-2-(4-chloro-2-fluorophenyl)-2-methyl-2H-1,3-benzodioxol-4-yl]piperidin-1-yl}methyl)-3-(methanesulfonylmethyl)-5-[5-(trifluoromethyl)-4H-1,2,4-triazol-3-yl]pyridine], with under 1 nM. In the case of `CC1(c2ccc(Cl)cc2F)Oc2cccc(C3CCN(Cc4ncc(-c5nnc(C(F)(F)F)[nH]5)cc4CC4(C#N)CC4)CC3O)c2O1` (single isomer, unassigned) [Example 23, 1-[(2-{[(3,4-trans)-4-[2-(4-chloro-2-fluorophenyl)-2-methyl-2H-1,3-benzodioxol-4-yl]-3-hydroxypiperidin-1-yl]methyl}-5-[5-(trifluoromethyl)-4H-1,2,4-triazol-3-yl]pyridin-3-yl)methyl]cyclopropane-1-carbonitrile] it was 1 to 100 nM; in that of `N#CC1(Cc2cc(-c3nnc(C(F)(F)F)[nH]3)cnc2CN2CC=C(c3cccc(OCc4ccc(Cl)cc4F)n3)CC2)CC1` [Example 47, 1-{[2-({6-[(4-chloro-2-fluorophenyl)methoxy]-1′,2′,3′,6′-tetrahydro-[2,4′-bipyridin]-1′-yl}methyl)-5-[5-(trifluoromethyl)-4H-1,2,4-triazol-3-yl]pyridin-3-yl]methyl}cyclopropane-1-carbonitrile], under 1 nM; in that of `C[C@]1(c2ccc(Cl)cc2F)Oc2cccc(C3CCN(Cc4ncc(-c5nnc(C(F)(F)F)[nH]5)cc4CC4CCS4(=O)=O)CC3)c2O1` (stereo partly drawn) [Example 54, 2-{[2-({4-[(2S)-2-(4-chloro-2-fluorophenyl)-2-methyl-2H-1,3-benzodioxol-4-yl]piperidin-1-yl}methyl)-5-[5-(trifluoromethyl)-4H-1,2,4-triazol-3-yl]pyridin-3-yl]methyl}-1λ^6-thietane-1,1-dione], 1 to 100 nM. For `CC1(c2ccc(C(F)(F)F)cc2Cl)Oc2cccc(C3CCN(Cc4ncc(-c5nnc(C(F)(F)F)[nH]5)cc4CC4(C#N)CC4)CC3)c2O1` (centres unmarked) [Example 9, 1-((2-((4-(2-(2-Chloro-4-(trifluoromethyl)phenyl)-2-methylbenzo[d][1,3]dioxol-4-yl)piperidin-1-yl)methyl)-5-(5-(trifluoromethyl)-4H-1,2,4-triazol-3-yl)pyridin-3-yl)methyl)cyclopropane-1-carbonitrile], the EC50 was under 1 nM. In the case of `CC1(c2ccc(Cl)cc2Cl)Oc2cccc(C3CCN(Cc4ncc(-c5nnc(C(F)(F)F)[nH]5)cc4CC4(C#N)CC4)CC3)c2O1` (single isomer, unassigned) [Example 3, 1-{[2-({4-[2-(2,4-dichlorophenyl)-2-methyl-2H-1,3-benzodioxol-4-yl]piperidin-1-yl}methyl)-5-[5-(trifluoromethyl)-4H-1,2,4-triazol-3-yl]pyridin-3-yl]methyl}cyclopropane-1-carbonitrile] it was under 1 nM; in that of `Cc1cc(-c2cn(C)nn2)cnc1CN1CCC(c2cccc3c2OC(C)(c2ccc(Cl)cc2F)O3)CC1` (centres unmarked) [Example 94], 1 to 100 nM.
